target: T1, Zcchc11 enzyme (Homo sapiens, UniProt Q5TAX3); experiment: TUTase assay (Zcchc11 assay, Lin28a-dependent polyuridylation of pre-let-7); type: biochemical; settings: LIN28A 10 nM, Zcchc11 0.2 nM, 5′-fluorescein pre-let-7 miRNA 2 nM, UTP 5 uM, room temperature, 30 minutes pre-incubation; read-out: Potency Lin28a-dep Z11 IC50
T1 construct: made in house; host or cells: HEK293 cells (Zcchc11); E. coli Rosetta II (LIN28A)
T1 sequence (Q5TAX3 212-1420): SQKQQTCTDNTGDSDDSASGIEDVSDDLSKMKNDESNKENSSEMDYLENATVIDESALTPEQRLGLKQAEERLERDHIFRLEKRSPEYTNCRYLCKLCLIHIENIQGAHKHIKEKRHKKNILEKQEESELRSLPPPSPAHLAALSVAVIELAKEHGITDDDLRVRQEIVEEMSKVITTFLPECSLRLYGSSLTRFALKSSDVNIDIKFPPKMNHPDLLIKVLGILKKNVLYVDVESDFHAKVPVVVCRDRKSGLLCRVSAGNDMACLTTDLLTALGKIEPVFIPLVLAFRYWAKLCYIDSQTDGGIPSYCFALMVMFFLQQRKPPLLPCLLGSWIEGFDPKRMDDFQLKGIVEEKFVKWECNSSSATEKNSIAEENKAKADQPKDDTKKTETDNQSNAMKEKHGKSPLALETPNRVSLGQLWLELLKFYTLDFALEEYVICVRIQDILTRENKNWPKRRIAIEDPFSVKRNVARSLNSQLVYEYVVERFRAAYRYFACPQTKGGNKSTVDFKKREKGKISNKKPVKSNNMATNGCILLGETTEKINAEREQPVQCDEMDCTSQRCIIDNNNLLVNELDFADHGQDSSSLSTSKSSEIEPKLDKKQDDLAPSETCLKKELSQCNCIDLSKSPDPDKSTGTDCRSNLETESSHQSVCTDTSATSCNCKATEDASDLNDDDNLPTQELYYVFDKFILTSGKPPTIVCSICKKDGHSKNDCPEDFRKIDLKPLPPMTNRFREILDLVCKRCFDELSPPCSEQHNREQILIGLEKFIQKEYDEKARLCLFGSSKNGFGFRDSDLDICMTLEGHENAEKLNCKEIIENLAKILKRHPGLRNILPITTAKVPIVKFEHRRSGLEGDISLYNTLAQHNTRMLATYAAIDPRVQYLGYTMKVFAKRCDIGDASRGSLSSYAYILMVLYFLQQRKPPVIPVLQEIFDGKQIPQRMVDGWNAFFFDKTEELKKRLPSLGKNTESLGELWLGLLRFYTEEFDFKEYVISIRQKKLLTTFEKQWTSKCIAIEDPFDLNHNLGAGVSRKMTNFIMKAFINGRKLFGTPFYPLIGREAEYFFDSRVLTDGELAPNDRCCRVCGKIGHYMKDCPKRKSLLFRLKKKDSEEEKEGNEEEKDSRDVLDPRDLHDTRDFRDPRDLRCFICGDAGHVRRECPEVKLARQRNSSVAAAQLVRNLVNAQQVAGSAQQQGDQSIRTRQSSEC
Method in brief: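 Polyuridylation measured as fluorescein loss when a rhodamine-labelled A20 probe anneals to U-tails added to fluorescein pre-let-7 (2 nM). Reaction: truncated Zcchc11 0.2 nM, E. coli-made LIN28A 10 nM, UTP 5 uM, HEPES pH 7.3, room temperature. Initial rates fitted to four-parameter IC50.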

Row | IC50 [µM] | SMILES
1 | ≤ 1 | CO/N=C1/C[C@H](COc2nc(OC)ccc2Cl)N(c2cc3c(cc2Cl)c(=O)c(C(=O)O)cn3-c2ccc(N3CC(N(C)C)C3)nc2)C1 [Example 69, 6-chloro-7-[(2R,4Z)-2-[[(3-chloro-6-methoxypyridin-2-yl)oxy]methyl]-4-(methoxyimino)pyrrolidin-1-yl]-1-[6-[3-(dimethylamino)azetidin-1-yl]pyridin-3-yl]-4-oxoquinoline-3-carboxylic acid]

same assay, conditions: Lin28a-dependent Zcchc11 (Z11) TUTase activity; read-out: Potency Lin28a-dep Z11 IC50

Row | IC50 [µM] | SMILES
2 | ≤ 1 | CN(C)C1CN(c2ccc(-n3cc(C(=O)O)c(=O)c4cc(Cl)c(N5CCC[C@@]5(C)COc5ncccc5Cl)nc43)cn2)C1 (racemic) [Compound 186, rac-(R)-6-chloro-7-(2-(((3-chloropyridin-2-yl)oxy)methyl)-2-methyl-pyrrolidin-1-yl)-1-(6-(3-(dimethyl-amino)azetidin-1-yl)pyridin-3-yl)-4-oxo-1,4-dihydro-1,8-naphthyridine-3-carboxylic acid]
3 | ≤ 1 | O=C(O)c1cn(-c2ccccc2)c2cc(N3CCC[C@@H]3COc3ncccc3C(F)(F)F)c(F)cc2c1=O [Compound 100, (R)-6-fluoro-4-oxo-1-phenyl-7-(2-(((3-(trifluoro-methyl)pyridin-2-yl)oxy)methyl)pyrrolidin-1-yl)-1,4-dihydro-quinoline-3-carboxylic acid]
4 | ≤ 1 | COc1ccnc(OC[C@H]2C[C@H]3C[C@H]3N2c2cc3c(cc2Cl)c(=O)c(C(=O)O)cn3-c2ccc(N(C)C)nc2)c1Cl [Compound 267, 6-chloro-7-((1R,3R,5R)-3-(((3-chloro-4-methoxy-pyridin-2-yl)oxy)methyl)-2-azabicyclo [3.1.0]hexan-2-yl)-1-(6-(dimethyl-amino)pyridin-3-yl)-4-oxo-1,4-dihydro-quinoline-3-carboxylic acid]
5 | ≤ 1 | CN(C)C(=O)OC[C@H]1CCCN1c1cc2c(cc1Cl)c(=O)c(C(=O)O)cn2-c1ccc(N2CC(N(C)C)C2)nc1 (racemic) [Compound 195, rac-(R)-6-chloro-1-(6-(3-(dimethyl-amino)azetidin-1-yl)pyridin-3-yl)-7-(2-(((dimethylcarbamoyl)oxy)methyl)pyrrolidin-1-yl)-4-oxo-1,4-dihydro-quinoline-3-carboxylic acid formic acid]
6 | ≤ 1 | O=C(O)c1cn(-c2cnc(OCc3ccccc3)cn2)c2cc(N3CCC[C@@H]3COc3ncccc3Cl)c(Cl)cc2c1=O (racemic) [Compound 263, rac-(R)-1-(5-(benzyloxy)pyrazin-2-yl)-6-chloro-7-(2-(((3-chloropyridin-2-yl)oxy)methyl)pyrrolidin-1-yl)-4-oxo-1,4-dihydro-quinoline-3-carboxylic acid]
7 | ≤ 1 | CN(C)C1CN(c2ccc(-n3cc(C(=O)O)c(=O)c4cc(F)c(N5CC(c6ccc(O)nc6)C[C@@H]5COc5ncccc5Cl)cc43)cn2)C1 (mixture of isomers) [Compound 189, rac-7-((2R)-2-(((3-chloropyridin-2-yl)oxy)methyl)-4-(6-hydroxy-pyridin-3-yl)pyrrolidin-1-yl)-1-(6-(3-(dimethyl-amino)azetidin-1-yl)pyridin-3-yl)-6-fluoro-4-oxo-1,4-dihydro-quinoline-3-carboxylic acid]
8 | ≤ 1 | O=C(O)c1cn(-c2ccc(N3CCC3)nc2)c2cc(N3CCC[C@@H]3COc3ncccc3F)c(Cl)cc2c1=O [Compound 289, (R)-1-(6-(azetidin-1-yl)pyridin-3-yl)-6-chloro-7-(2-(((3-fluoropyridin-2-yl)oxy)methyl)pyrrolidin-1-yl)-4-oxo-1,4-dihydro-quinoline-3-carboxylic acid]
9 | ≤ 1 | Nc1ccc(-n2cc(C(=O)O)c(=O)c3cc(Cl)c(N4CCC[C@@H]4COc4ncccc4Cl)nc32)cn1 (racemic) [Compound 190, rac-(R)-1-(6-aminopyridin-3-yl)-6-chloro-7-(2-(((3-chloropyridin-2-yl)oxy)methyl)pyrrolidin-1-yl)-4-oxo-1,4-dihydro-1,8-naphthyridine-3-carboxylic acid]
10 | ≤ 1 | O=C(O)c1cn(-c2ccc(O)cc2)c2cc(N3CCC[C@@H]3COc3ccccn3)c(F)cc2c1=O [Compound 166, (R)-6-fluoro-1-(4-hydroxy-phenyl)-4-oxo-7-(2-((pyridin-2-yloxy)methyl)pyrrolidin-1-yl)-1,4-dihydro-quinoline-3-carboxylic acid]

same assay, conditions: Lin28a-dependent Zcchc11 (Z11) TUTase assay; read-out: Potency Lin28a-dep Z11 IC50

Row | SMILES | IC50 [µM]
11 | O=C(O)c1cn(-c2cc3cc[nH]c3cc2F)c2cc(N3CCC[C@@H]3COc3ncccc3Cl)c(Cl)cc2c1=O [Example 505, (R)-6-chloro-7-(2-(((3-chloropyridin-2-yl)oxy)methyl)pyrrolidin-1-yl)-1-(6-fluoro-1H-indol-5-yl)-4-oxo-1,4-dihydroquinoline-3-carboxylic acid] | ≤ 1
12 | CN(C)C1CN(c2ccc(-n3cc(C(=O)O)c(=O)c4cc(Cl)c(N5CCC[C@@H]5COC5CCOCC5)cc43)cn2)C1 [Example 595, (R)-6-chloro-1-(6-(3-(dimethylamino)azetidin-1-yl)pyridin-3-yl)-4-oxo-7-(2-(((tetrahydro-2H-pyran-4-yl)oxy)methyl)pyrrolidin-1-yl)-1,4-dihydroquinoline-3-carboxylic acid] | 1 to 10

Next, values leading:

Row | IC50 [µM] | SMILES
13 | ≤ 1 | O=C(O)c1cn(-c2ccc(C3COC3)nc2)c2cc(N3CCC[C@@H]3COc3ncccc3Cl)c(Cl)cc2c1=O [Example 605, (R)-6-chloro-7-(2-(((3-chloropyridin-2-yl)oxy)methyl)pyrrolidin-1-yl)-1-(6-(oxetan-3-yl)pyridin-3-yl)-4-oxo-1,4-dihydroquinoline-3-carboxylic acid]
14 | ≤ 1 | Cc1cc2c(=O)c(C(=O)O)cn(-c3ccc(N4CC(N(C)C)C4)nc3)c2cc1N1CCC[C@@H]1COc1ncccc1F [Example 528, (R)-1-(6-(3-(dimethylamino)azetidin-1-yl)pyridin-3-yl)-7-(2-(((3-fluoropyridin-2-yl)oxy)methyl)pyrrolidin-1-yl)-6-methyl-4-oxo-1,4-dihydroquinoline-3-carboxylic acid]
15 | ≤ 1 | O=C(O)c1cn(-c2ccc(C3CNC3)nc2)c2cc(N3CCC[C@@H]3COc3ncccc3Cl)c(Cl)cc2c1=O [Example 606, (R)-1-(6-(azetidin-3-yl)pyridin-3-yl)-6-chloro-7-(2-(((3-chloropyridin-2-yl)oxy)methyl)pyrrolidin-1-yl)-4-oxo-1,4-dihydroquinoline-3-carboxylic acid]
16 | 1 to 10 | CN(C)CCn1cc(Cn2cc(C(=O)O)c(=O)c3cc(Cl)c(N4CCC[C@@H]4COc4ncccc4Cl)cc32)cn1 [Example 582, (R)-6-chloro-7-(2-(((3-chloropyridin-2-yl)oxy)methyl)pyrrolidin-1-yl)-1-((1-(2-(dimethylamino)ethyl)-1H-pyrazol-4-yl)methyl)-4-oxo-1,4-dihydroquinoline-3-carboxylic acid]
17 | 1 to 10 | O=C(O)c1cn(C2CCCC2)c2cc(N3CCC[C@@H]3COc3ccccn3)c(F)cc2c1=O [Example 449, (R)-1-cyclopentyl-6-fluoro-4-oxo-7-(2-((pyridin-2-yloxy)methyl)pyrrolidin-1-yl)-1,4-dihydroquinoline-3-carboxylic acid]
18 | ≤ 1 | CN(C)C1CN(c2ccc(-n3cc(C(=O)O)c(=O)c4cc(F)c(N5CCC[C@@H]5COc5ncccc5Cl)cc43)cn2)C1 [Example 510, (R)-7-(2-(((3-chloropyridin-2-yl)oxy)methyl)pyrrolidin-1-yl)-1-(6-(3-(dimethylamino)azetidin-1-yl)pyridin-3-yl)-6-fluoro-4-oxo-1,4-dihydroquinoline-3-carboxylic acid]
